From patent US7968556B2, “Heteroaryl compounds, compositions thereof, and methods of treatment therewith” (Signal Pharmaceuticals, LLC, priority 2006, dated 2011)

What was measured:
mTOR = mTOR (Homo sapiens, UniProt P42345); test: mTOR HTR-FRET Assay; type: biochemical
In short: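 TOR enzyme fraction preincubated 30 min at room temperature with compound, then reaction started with GST-p70S6 kinase fragment substrate (97 nM working stock) plus ATP/Mn2+ and run 2 h at room temperature in Tris pH 7.4 buffer. Stopped with EDTA; phospho-substrate detected by HTRF antibody reagent after 5 h to overnight.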

Tyk2 = molecular target: T1, Tyk2 (Homo sapiens, UniProt P29597); test: Tyk2 HTRF Assay; type: biochemical
T1 construct: 450 ng/ml TYK2 KD (Cama Biosciences 08-147 Lot 06CBS-3022D); purchased Cama Biosciences (so in the source)
T1 sequence (P29597 897-1176 limits assumed): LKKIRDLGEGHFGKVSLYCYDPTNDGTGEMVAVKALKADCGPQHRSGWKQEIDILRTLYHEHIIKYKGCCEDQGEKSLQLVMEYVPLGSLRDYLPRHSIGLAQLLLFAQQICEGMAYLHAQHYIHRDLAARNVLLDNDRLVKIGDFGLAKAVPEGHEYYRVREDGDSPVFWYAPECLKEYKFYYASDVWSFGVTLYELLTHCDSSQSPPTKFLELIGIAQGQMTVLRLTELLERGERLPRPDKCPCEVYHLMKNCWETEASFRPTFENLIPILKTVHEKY
Description: The following is an example of an assay that can be used to determine the Tyk2 inhibitory activity of a test compound.
25 μl/well DMSO is added to Columns 2 and 14 (except 28.5 μl is added to well P14 of Greiner 384-well polypropylene plate). 20 μl/well DMSO is added to all remaining wells.
5 mM compound solutions are added by addition of 5 μl of 30 mM compound to 25 μl DMSO in Columns 2 and 14 of plate. 1.5 mM reference control is prepared by addition of 1.5 μl of 30 mM JAK3 Inhibitor VI to 28.5 μl DMSO in Well P14.
(§1) Serial dilution is then performed by the following steps: (i) Compounds in Column 2 are mixed by pipetting 20 μl up and down 6X; (ii) 10 μl/well compounds in DMSO are transferred from one column to the next column for Columns 2-11; (iii) wells are mixed by pipetting 20 μl up and down 6×; (iv) tips are washed 3×25 μl DMSO, 2×25 μl next DMSO; (v) steps i-iv repeated for Columns 14-23.
(§2) The following buffers are prepared:
Assay Buffer: 50 mM HEPES pH 7.6; 1 mM DTT; 10 mM MgCl2; 0.01% Triton X100; 0.01% BSA; and 0.1 mM EDTA.
Kinase in Assay Buffer: 450 ng/ml TYK2 KD (Cama Biosciences 08-147 Lot 06CBS-3022D).
Substrate/Detection Mixture (1×ATP) in Assay Buffer: 188 nM DyLight 647-Streptavidin (Pierce 21824); 5 μM Biotin-EQEDEPEGDYFEWLE (Lyn Substrate Peptide); 750 ng/ml Eu-anti-phospho-Tyrosine (PerkinElmer AD0069); 62.5 μM ATP; 80 nM Substrate Peptide (American Peptide Company 332722).
Substrate/Detection Mixture (20×ATP) in Assay Buffer: 188 nM DyLight 647-Streptavidin; 5 μM Biotin-EQEDEPEGDYFEWLE; 750 ng/ml Eu-anti-phospho-Tyrosine; 1250 μM ATP; 80 nM Substrate Peptide.
14.5 μl/well Enzyme Mix or Dilution Buffer (Background Controls) is added to Costar 384 well black plates.
(§3) Compound addition and mixture is performed by the following steps: (i) 0.5 μl/well DMSO/compounds in DMSO is transferred from Greiner 384-well polypropylene plate to a plate containing 14.5 μl/well Enzyme Mix and Dilution Buffer; (ii) mixed by pipetting 10 μl up and down 4×; (iii) tips are washed 4×10 μl in DMSO, 2×20 μl in other DMSO; (iv) steps i-iii are repeated until all plates are completed.
10 μl/well Substrate/Detection Mixtures is added and incubated at room temperature 2 hours (on shaker for first 2+ minutes).
10 μl/well 50 mM EDTA/0.01% Triton X100 is added and incubated >15 minutes at room temperature (on shaker for first 2+ minutes).
Plates are read at 665 nm and 620 nm emission on Analyst GT protocol HTRF_SP_A (Counts= 665/620×10000).

Syk = molecular target: T2, Syk (Homo sapiens, UniProt P43405); test: Syk HTRF Assay; type: biochemical
T2 construct: purchased Cama Biosciences (so in the source)
Description: 5 μl/well DMSO is added to Column 2 Wells A-0 and 29.5 μl to well P2 of Greiner 384-well polypropylene plate. 20 μl/well DMSO is added to Columns 1 and 3-12.
25 mM compound solutions are prepared by the addition of 25 μl of 30 mM compound to Column 2 and 0.5 μl 30 mM reference control to well P2.
as §1, with “compounds” for “Compounds”, “6×;” for “6X;”, “tips” for “tips are”, “DMSO.” for “DMSO; (v) steps i-iv repeated for Columns 14-23.”
as §2
Dilution Buffer: 50 mM HEPES pH 7.6; 1 mM DTT; 10 mM MgCl2; 0.01% Triton X100; 0.01% BSA; 0.1 mM EDTA.
Enzyme Mix in Dilution Buffer: 8.621 ng/ml Syk (Cama Biosciences 08-176).
Start Mix in Dilution Buffer: 87.5 μM ATP; 80 nM Substrate Peptide (American Peptide Company 332722).
14.5 μl/well Enzyme Mix or Dilution Buffer (Background Controls) is added to Costar 384-well black plates.
as §3, with “DMSO” for “DMSO is”, “to left half of assay” for “to a”, “(ii) Mix” for “(ii) mixed”, “repeated with transfer to right half of assay plate; (v) steps i-iv are repeated with each compound/assay plate” for “repeated”
10 μl/well Start Mix is added and incubated at room temperature on shaker for 2 minutes (1 hour total reaction time).
Stop Solution in Dilution Buffer: 120 mM EDTA
Antibody Mix in Dilution Buffer: 4.86 μg/ml DyLight 647 Streptavidin (Pierce 21824); 1 μg/ml Lance Eu-Anti-Phosphotyrosine (PerkinElmer AD0069).
5 μl/well[…] is added and incubated at room temperature on shaker for 2 minutes.
[…] Antibody Mix is added and Incubated at room temperature on shaker for 2 minutes (4 hours to overnight total time).
Plates are read at 665 nm and 620 nm emission on Analyst GT protocol HTRF_SP_A or EnVision protocol Steve's TR-FRET.

Row | SMILES | IC50 (mTOR) | IC50 (Tyk2) | melting point | IC50 (Syk)
1 | NC(=O)c1nc(-c2cccc(O)c2)nc2c1[nH]c(=O)n2-c1c(Cl)cccc1Cl [Compound 69, 9-(2,6-Dichlorophenyl)-2-(3-hydroxyphenyl)-8-oxo-7-hydropurine-6-carboxamide] | 0.1 to 5 µM | 0.1 to 5 µM | 290 to 292 °C | –
2 | NC(=O)c1nc(-c2cccc(O)c2)nc2c1[nH]c(=O)n2[C@H]1CC[C@H](O)CC1 [Compound 47, 9-(trans-4-Hydroxycyclohexyl)-2-(3-hydroxyphenyl)-8-oxo-8,9-dihydro-7H-purine-6-carboxamide] | 0.1 to 5 µM | 10.1 to 20 µM | 366 to 368 °C | –
3 | COc1ccccc1-n1c(=O)[nH]c2c(C(N)=O)nc(-c3cccc(O)c3Cl)nc21 [Compound 54, 2-(2-Chloro-3-hydroxyphenyl)-9-(2-methoxyphenyl)-8-oxo-7-hydropurine-6-carbox amide] | 0.1 to 5 µM | – | 331 to 334 °C | 0.1 to 5 µM
4 | COc1ccccc1-n1c(=O)[nH]c2c(C(N)=O)nc(-c3cccc4[nH]cnc34)nc21 [Compound 99, 2-(1H-benzo[d]imidazol-4-yl)-9-(2-methoxyphenyl)-8-oxo-8,9-dihydro-7H-purine-6-carboxamide] | > 30 µM | 0.1 to 5 µM | 312 °C | –
5 | NC(=O)c1nc(-c2ccc3nc[nH]c3c2)nc2c1[nH]c(=O)n2-c1ccccc1F [Compound 101, 2-(1H-benzo[d]imidazol-6-yl)-9-(2-fluorophenyl)-8-oxo-8,9-dihydro-7H-purine-6-carboxamide] | 0.1 to 5 µM | – | 278 °C | 10.1 to 20 µM
6 | COc1ccccc1-n1c(=O)[nH]c2c(C(N)=O)nc(-c3cccc(N)c3)nc21 [Compound 38, 2-(3-aminophenyl)-9-(2-methoxyphenyl)-8-oxo-8,9-dihydro-7H-purine-6-carboxamide] | – | – | 284 to 285 °C | > 30 µM
7 | CNC(=O)c1nc(-c2cccc(O)c2)nc2c1[nH]c(=O)n2-c1ccccc1OC [Compound 42, [2-(3-Hydroxyphenyl)-9-(2-methoxyphenyl)-8-oxo(7-hydropurin-6-yl)]-N-methylcarbox-amide] | > 30 µM | > 30 µM | 339 °C | –
8 | COc1ccccc1-n1c(=O)[nH]c2c(C(N)=O)nc(-c3cccc(O)c3F)nc21 [Compound 77, 2-(2-Fluoro-3-hydroxyphenyl)-9-(2-methoxyphenyl)-8-oxo-7-hydropurine-6-carbox-amide] | 0.1 to 5 µM | 0.1 to 5 µM | > 300 °C | –
